In patent US20150148551A1, “GENISTEIN FOR REDUCING LEVELS OF STORAGE COMPOUNDS IN THE TREATMENT AND/OR PREVENTION OF LYSOSOMAL STORAGE DISEASES (LSDS)” (3G THERAPEUTICS, INC., priority 2012, published 2015):

Key:
HYAL3 = assay: DNA microarray, HYAL3 expression in fibroblasts exposed to genistein; assay type: cell-based, human; details: for HYAL3 fold change Average: 48 h vs DMSO
Method: (§1) The experiments were conducted to characterise the transcriptomic profile of human fibroblast cells exposed to genistein, and in particular to determine the expression of genes encoding lysosomal enzymes involved in metabolism (i.e. synthesis and degradation) of organic substances. The absence or deficiency of these enzymes' activity is responsible for occurrence of various lysosomal storage diseases (LSD) (including MPS). The tested hypothesis assumed that genistein influences the expression of many genes, among which there are genes coding for enzymes required in metabolism of compounds, which are pathologically stored in LSD. The results provide important information regarding genistein action on the molecular level within the range of gene expression modulation by this substance. The experiment was conducted in biological quintuplicates. Human dermal fibroblasts (HDFa) were exposed in vitro for 1, 24 or 48 hours to: 30, 60 or 100 μM of genistein; 0.05% DMSO (K1); or were untreated (control cells) (K2), and total RNA was isolated and analysed.
(§2) Fibroblast cells were grown in Dulbecco (DMEM) medium supplemented with 10% fetal bovine serum (FBS) with the addition of 1% antibiotics and anti-fungal agents at 37° C. in humidified atmosphere of 5% CO2, until the required confluency was obtained.
(§3) To determine the effect of tested compound on the transcriptom of the fibroblast cells, the growth medium was replaced with fresh medium, either non-supplemented (0.05% DMSO), or containing genistein (30, 60 or 100 μM, in 0.05% DMSO). The exposure was done for 1, 24 or 48 hours.
(§4) Total RNA was isolated from fibroblasts using High Pure RNA Isolation Kit according to the protocol and then it was quantitatively evaluated using Quant-It™ RiboGreen® Assay Kit.
(§5) Biotinylated cRNA was prepared using Ambion Total PrepAmp Kit for Illumina arrays.
(§6) Standard hybridization and quantitative image analysis procedures—Illumina hybridization protocol and Illumina scanning protocol, were used.
(§7) Processing of the results was done during data definition, including: background correction (using background subtraction method), normalization (using quantile normalization algorithm with Illumina GenomeStudio software package: gene expression module version 1.9.0) and summarization (using method, which sums the values of signal intensities from a set of probes).

FUCA1 = assay: DNA microarray, FUCA1 expression in fibroblasts exposed to genistein; assay type: cell-based, human; details: for FUCA1 fold change Average: 48 h vs DMSO
Method: as §1, §2, §3, §4, §5, §6, §7

TPP1 = assay: DNA microarray, TPP1 expression in fibroblasts exposed to genistein; assay type: cell-based, human; details: for TPP1 fold change Average: 48 h vs DMSO
Method: as §1, §2, §3, §4, §5, §6, §7

CLN5 = assay: DNA microarray, CLN5 expression in fibroblasts exposed to genistein; assay type: cell-based, human; details: for CLN5 fold change Average: 48 h vs DMSO
Method: as §1, §2, §3, §4, §5, §6, §7

CTSD = assay: DNA microarray, CTSD expression in fibroblasts exposed to genistein; assay type: cell-based, human; details: for CTSD fold change Average: 48 h vs DMSO
Method: as §1, §2, §3, §4, §5, §6, §7

CTSO = assay: DNA microarray, CTSO expression in fibroblasts exposed to genistein; assay type: cell-based, human; details: for CTSO fold change Average: 48 h vs DMSO
Method: as §1, §2, §3, §4, §5, §6, §7

LGMN = assay: DNA microarray, LGMN expression in fibroblasts exposed to genistein; assay type: cell-based, human; details: for LGMN fold change Average: 48 h vs DMSO
Method: as §1, §2, §3, §4, §5, §6, §7

ACP2 = assay: DNA microarray, ACP2 expression in fibroblasts exposed to genistein; assay type: cell-based, human; details: for ACP2 fold change Average: 48 h vs DMSO
Method: as §1, §2, §3, §4, §5, §6, §7

[1] = humans and animals; cited from earlier work

O=c1c(-c2ccc(O)cc2)coc2cc(O)cc(O)c12 [genistein, 4′,5,7-trihydroxy-3-phenylchromen-4-one]
HYAL3 fold change Average (HYAL3; 60 μM): 0.9492 fold change | HYAL3 fold change Average 1h100/1hK1 (HYAL3; 100 μM, 1 h vs 0.05% DMSO): 1.141 fold change | HYAL3 fold change Average (HYAL3; 100 μM): 1.001 fold change | FUCA1 fold change Average 1h30/1hK1 (FUCA1; 30 μM, 1 h vs 0.05% DMSO): 0.9984 fold change | FUCA1 fold change Average (FUCA1; 30 μM): 1.3114 fold change | FUCA1 fold change Average 1h60/1hK1 (FUCA1; 60 μM, 1 h vs 0.05% DMSO): 1.022 fold change | FUCA1 fold change Average (FUCA1; 60 μM): 1.558 fold change | FUCA1 fold change Average 1h100/1hK1 (FUCA1; 100 μM, 1 h vs 0.05% DMSO): 0.9945 fold change | FUCA1 fold change Average (FUCA1; 100 μM): 1.634 fold change | TPP1 fold change Average 1h30/1hK1 (TPP1; 30 μM, 1 h vs 0.05% DMSO): 1.0655 fold change | TPP1 fold change Average (TPP1; 30 μM): 1.2672 fold change | TPP1 fold change Average 1h60/1hK1 (TPP1; 60 μM, 1 h vs 0.05% DMSO): 1.001 fold change | TPP1 fold change Average (TPP1; 60 μM): 1.505 fold change | TPP1 fold change Average 1h100/1hK1 (TPP1; 100 μM, 1 h vs 0.05% DMSO): 1.031 fold change | TPP1 fold change Average (TPP1; 100 μM): 1.603 fold change | CLN5 fold change Average 1h30/1hK1 (CLN5; 30 μM, 1 h vs 0.05% DMSO): 1.0505 fold change | CLN5 fold change Average (CLN5; 30 μM): 1.3471 fold change | CLN5 fold change Average 1h60/1hK1 (CLN5; 60 μM, 1 h vs 0.05% DMSO): 1.028 fold change | CLN5 fold change Average (CLN5; 60 μM): 1.79 fold change | CLN5 fold change Average 1h100/1hK1 (CLN5; 100 μM, 1 h vs 0.05% DMSO): 1.05 fold change | CLN5 fold change Average (CLN5; 100 μM): 2.125 fold change | CTSD fold change Average 1h30/1hK1 (CTSD; 30 μM, 1 h vs 0.05% DMSO): 0.9734 fold change | CTSD fold change Average (CTSD; 30 μM): 1.3322 fold change | CTSD fold change Average 1h60/1hK1 (CTSD; 60 μM, 1 h vs 0.05% DMSO): 1.119 fold change | CTSD fold change Average (CTSD; 60 μM): 1.302 fold change | CTSD fold change Average 1h100/1hK1 (CTSD; 100 μM, 1 h vs 0.05% DMSO): 1.018 fold change | CTSD fold change Average (CTSD; 100 μM): 1.939 fold change | CTSO fold change Average 1h30/1hK1 (CTSO; 30 μM, 1 h vs 0.05% DMSO): 0.9973 fold change | CTSO fold change Average (CTSO; 30 μM): 1.2507 fold change | CTSO fold change Average 1h60/1hK1 (CTSO; 60 μM, 1 h vs 0.05% DMSO): 1 fold change | CTSO fold change Average (CTSO; 60 μM): 1.276 fold change | CTSO fold change Average 1h100/1hK1 (CTSO; 100 μM, 1 h vs 0.05% DMSO): 1.07 fold change | CTSO fold change Average (CTSO; 100 μM): 1.471 fold change | LGMN fold change Average 1h30/1hK1 (LGMN; 30 μM, 1 h vs 0.05% DMSO): 0.9392 fold change | LGMN fold change Average (LGMN; 30 μM): 1.3309 fold change | LGMN fold change Average 1h60/1hK1 (LGMN; 60 μM, 1 h vs 0.05% DMSO): 0.9963 fold change | LGMN fold change Average (LGMN; 60 μM): 1.61 fold change | LGMN fold change Average 1h100/1hK1 (LGMN; 100 μM, 1 h vs 0.05% DMSO): 0.8978 fold change | LGMN fold change Average (LGMN; 100 μM): 1.833 fold change | ACP2 fold change Average 1h30/1hK1 (ACP2; 30 μM, 1 h vs 0.05% DMSO): 1.0116 fold change | ACP2 fold change Average (ACP2; 30 μM): 1.0451 fold change | ACP2 fold change Average 1h60/1hK1 (ACP2; 60 μM, 1 h vs 0.05% DMSO): 0.95 fold change | ACP2 fold change Average (ACP2; 60 μM): 1.063 fold change | ACP2 fold change Average 1h100/1hK1 (ACP2; 100 μM, 1 h vs 0.05% DMSO): 0.9804 fold change | ACP2 fold change Average (ACP2; 100 μM): 1.147 fold change | tolerability [1]: well-tolerated
